Data set [1] deals with T1, GnRH receptor (GnRHR or LHRHR) (Homo sapiens, UniProt P30968).
T1 sequence (P30968 1-328): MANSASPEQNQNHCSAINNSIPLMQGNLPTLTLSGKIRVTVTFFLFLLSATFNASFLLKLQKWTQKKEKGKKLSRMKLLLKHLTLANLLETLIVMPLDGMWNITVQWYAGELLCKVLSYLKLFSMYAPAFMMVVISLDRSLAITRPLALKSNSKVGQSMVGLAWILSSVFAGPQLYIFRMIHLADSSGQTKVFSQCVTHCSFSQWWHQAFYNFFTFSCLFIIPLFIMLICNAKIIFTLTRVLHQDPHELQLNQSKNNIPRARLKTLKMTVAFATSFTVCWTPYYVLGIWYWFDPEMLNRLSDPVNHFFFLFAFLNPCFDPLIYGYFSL
The experiment in a line: GnRHR calcium flux assay (Discoverx), antagonistic. The conditions noted are these: for IC50: LHRH-stimulated. It counts as cell-based. The text has this: To study the bioactivities of conjugated and mutated peptides, we employed in vitro receptor-activation assays with cultured cells expressing recombinant melanocortin receptor 1 (MC1R), melanocortin receptor 4 (MC4R), CRH receptor 2 (CRHR2), PTH receptor 1 (PTHR1), or kappa opioid receptor (OPRK1). The agonistic activities toward MC1R, MC4R, CRHR2, PTHR1, and OPRK1 were assyed with an MC1R cAMP assay, an MC4R cAMP assay, a CRHR2 cAMP assay, a PTHR1 cAMP assay and an OPRK1 cAMP assay from Discoverx Inc. (Fremont, Calif.), respectively. The antagonistic activities toward bradykinin receptor 2 (BDKRB2) and GnRH receptor (GnRHR or LHRHR) were assayed with a BDKRB2 arrestin assay and a GnRHR calcium flux assay from Discoverx, respectively.
For the analysis of calcium flux, cell lines were expanded from freezer stocks and seeded in a total volume of 20 μL into black-walled, clear-bottom, Poly-D-lysine coated 384-well microplates and incubated at 37 C for the appropriate time prior to testing. Assays were performed in 1× Dye Loading Buffer consisting of 1× Dye, 1× Additive A and 2.5 mM Probenecid in HBSS/20 mM Hepes. Cells were loaded with dye prior to testing. Media was aspirated from cells and replaced with 20 μL Dye Loading Buffer. Cells were incubated for 30-60 minutes at 37 C. For agonist determination, cells were incubated with sample to induce response. After dye loading, cells were removed from the incubator and 10 μL HBSS/20 mM Hepes was added. Vehicle was included in the buffer when performing agonist dose curves to define the EC80 for antagonist assays. Cells were incubated for 30 minutes at room temperature in the dark to equilibrate plate temperature. Intermediate dilution of sample stocks was performed to generate 4× sample in assay buffer. Compound agonist activity was measured on a FLIPR Tetra (MDS), and calcium mobilization was monitored for 2 minutes and 10 μL 4× sample in HBSS/20 mM Hepes was added to the cells 5 seconds into the assay.
For antagonist determination, cells were pre-incubated with sample followed by agonist challenge at the EC80 concentration. Intermediate dilution of sample stocks was performed to generate 3× sample in assay buffer. After dye loading, cells were removed from the incubator and 10 μL 3× sample was added. Cells were incubated for 30 minutes at room temperature in the dark to equilibrate plate temperature. Vehicle concentration was 1%. Compound antagonistic activity was measured on a FLIPR Tetra (MDS), and calcium mobilization was monitored for 2 minutes and 10 μL EC80 agonist in HBSS/20 mM Hepes was added to the cells 5 seconds into the assay. The compound activity was analyzed using a CBIS data analysis suite (ChemInnovation, CA), and percentage activity is calculated using the following formula: % Activity=100%×(mean RFU of test sample−mean RFU of vehicle control)/(mean MAX RFU control ligand−mean RFU of vehicle control). For antagonist assays, percentage inhibition is calculated using the following formula: % Inhibition=100%×(1−(mean RFU of test sample−mean RFU of vehicle control)/(mean RFU of EC80 control−mean RFU of vehicle control)).

Data set [2] is described as follows: Compound gel-forming ability in water (visual inspection, tube tapping assay, tilted tube assay).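 For all read-outs here: peptides mixed with de-ionized water at about 22-25 °C, judged after 20 min by eye plus tube tapping (10 taps, moves counted) and 90° tilt mobility.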 It counts as physicochemical. The settings on record: for gel formation in aqueous solution, 6% / propensity to form gels, chimeric or mutated polypeptides, 6%: 6% w/w; for gel formation in aqueous solution, 11% / propensity to form gels, chimeric or mutated polypeptides, 11%: 11% w/w.

In another data set the target is T2, CRH receptor 2 (CRHR2) (Homo sapiens, UniProt Q13324).
T2 sequence (Q13324 1-411): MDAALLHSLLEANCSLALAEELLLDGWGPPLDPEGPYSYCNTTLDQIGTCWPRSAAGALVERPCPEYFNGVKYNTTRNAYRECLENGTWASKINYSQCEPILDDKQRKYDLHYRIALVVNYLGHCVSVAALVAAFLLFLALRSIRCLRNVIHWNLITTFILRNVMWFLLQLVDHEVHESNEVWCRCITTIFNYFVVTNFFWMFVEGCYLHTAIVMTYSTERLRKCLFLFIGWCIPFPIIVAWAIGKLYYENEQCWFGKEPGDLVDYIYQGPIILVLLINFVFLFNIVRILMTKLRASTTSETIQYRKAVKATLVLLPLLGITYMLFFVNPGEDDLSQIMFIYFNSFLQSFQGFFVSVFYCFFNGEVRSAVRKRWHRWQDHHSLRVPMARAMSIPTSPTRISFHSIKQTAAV
As to the kind of experiment: CRHR2 cAMP assay (Discoverx), agonistic. Format: cell-based. How it is done:
The agonistic activities toward MC1R, MC4R, CRHR2, PTHR1, and OPRK1 were assyed with an MC1R cAMP assay, an MC4R cAMP assay, a CRHR2 cAMP assay, a PTHR1 cAMP assay and an OPRK1 cAMP assay from Discoverx Inc. (Fremont, Calif.), respectively. The antagonistic activities toward bradykinin receptor 2 (BDKRB2) and GnRH receptor (GnRHR or LHRHR) were assayed with a BDKRB2 arrestin assay and a GnRHR calcium flux assay from Discoverx, respectively.
For the analysis of Gs-coupled cAMP production, cAMP Hunter cell lines were expanded from freezer stocks, and cells were seeded in a total volume of 20 μL into white walled, 384-well microplates and incubated at 37 C for the appropriate time prior to testing. The cAMP modulation was determined using the DiscoverX HitHunter cAMP XS+ assay. For agonistic activity determination, cells were incubated with sample to induce response. Media was aspirated from cells and replaced with 15 μL 2:1 HBSS/10 mM Hepes: cAMP XS+ Ab reagent. Intermediate dilution of sample stocks was performed to generate 4× sample in assay buffer, and 5 μL of 4× sample was added to cells and incubated at 37 C or room temperature for 30 or 60 minutes. Vehicle concentration was 1%. The compound activity was analyzed using a CBIS data analysis suite (ChemInnovation, CA). For Gs-coupled agonistic assays, percentage activity is calculated using the following formula: % Activity=100%×(mean RLU of test sample−mean RLU of vehicle control)/(mean RLU of MAX control−mean RLU of vehicle control).
For orientation: Cyclic AMP is a second messenger, typically raised through Gs and lowered through Gi signalling.

Where a SMILES comes first, the peptide text is derived from it. [ ]: non-standard residue; d: D form. The star is where a group is joined. dPhe(4-Cl) = N[C@H](Cc1ccc(Cl)cc1)C(=O)O; d2Nal = N[C@H](Cc1ccc2ccccc2c1)C(=O)O; Palmitoyl = CCCCCCCCCCCCCCCC(=O)*; dCit = NC(=O)NCCC[C@@H](N)C(=O)O; d3Pal = N[C@H](Cc1cccnc1)C(=O)O; AEEA = NCCOCCOCC(=O)O A value given as a limit tells only on which side of the number the result lay.

Usually IC50 stands for the midpoint of a concentration-inhibition curve. Consider `CC(=O)N[C@H](Cc1ccc2ccccc2c1)C(=O)N[C@H](Cc1ccc(Cl)cc1)C(=O)N[C@H](Cc1cccnc1)C(=O)N[C@@H](CO)C(=O)N[C@@H](Cc1ccc(O)cc1)C(=O)N[C@H](CCCNC(N)=O)C(=O)N[C@@H](CC(C)C)C(=O)N[C@@H](CCCNC(=N)N)C(=O)N1CCC[C@H]1C(=O)N[C@H](C)C(N)=O` [Cetrorelix, reference compound] (Ac-[d2Nal][dPhe(4-Cl)][d3Pal]SY[dCit]LRP[dA]-NH2), for which, in data set [1], the “Max Activity % of positive control” value is on record as 91.4 % of positive control and the IC50 was determined as 0.08 nM.
For `CCCCCCCCCCCCCCCC(=O)N[C@@H](CCCCN)C(=O)N[C@H](C(=O)N[C@@H](CCC(N)=O)C(=O)N[C@@H](CCCCN)C(=O)N[C@@H](CC(C)C)C(=O)N[C@@H](CO)C(=O)N[C@@H](C)C(=O)N1CCC[C@H]1C(=O)N[C@H](C(=O)N[C@@H](CC(=O)O)C(=O)N1CCC[C@H]1C(=O)N[C@@H](CO)C(=O)N[C@@H](CO)C(=O)N1CCC[C@H]1C(=O)N[C@@H](Cc1c[nH]cn1)C(=O)N[C@@H](CO)C(=O)N[C@@H](Cc1ccc(O)cc1)C(=O)NCCOCCOCC(=O)N[C@H](Cc1ccc2ccccc2c1)C(=O)N[C@H](Cc1ccc(Cl)cc1)C(=O)N[C@H](Cc1cccnc1)C(=O)N[C@@H](CO)C(=O)N[C@@H](Cc1ccc(O)cc1)C(=O)N[C@H](CCCNC(N)=O)C(=O)N[C@@H](CC(C)C)C(=O)N[C@@H](CCCNC(=N)N)C(=O)N1CCC[C@H]1C(=O)N[C@H](C)C(N)=O)C(C)C)C(C)C` [SEQ ID NO:202], in data set [2] (6% w/w in water), the “gel formation at 6% w/w” value is recorded as “semisolid gel”. Further, the “gel formation at 11% w/w” value in data set [2] (11% w/w in water) is “semisolid gel”. Further, in data set [2] (Table 3), the “gel formation in aqueous solution, 6%” value is given as “SS (SS for semisolid gel)” and the “gel formation in aqueous solution, 11%” value is recorded as “SS (SS for semisolid gel)”. In addition, the “propensity to form gels, chimeric or mutated polypeptides, 3%” value in data set [2] (Table 5, 3% w/w) is given as “AS/IS”. For the same compound, in data set [2] (Table 5), the “propensity to form gels, chimeric or mutated polypeptides, 6%” value was “SS (An ability to form semisolid gel is represented by an SS)” and the “propensity to form gels, chimeric or mutated polypeptides, 11%” value (“propensity to form gels … 11%” for short) was “SS (An ability to form semisolid gel is represented by an SS)”. The “Max Activity % of positive control” value in data set [1] is 135 % of positive control.
In the case of `CCCCCCCCCCCCCCCC(=O)N[C@@H](Cc1c[nH]cn1)C(=O)N[C@@H](CO)C(=O)N[C@@H](Cc1ccc(O)cc1)C(=O)N[C@H](Cc1ccc2ccccc2c1)C(=O)N[C@H](Cc1ccc(Cl)cc1)C(=O)N[C@H](Cc1cccnc1)C(=O)N[C@@H](CO)C(=O)N[C@@H](Cc1ccc(O)cc1)C(=O)N[C@H](CCCNC(N)=O)C(=O)N[C@@H](CC(C)C)C(=O)N[C@@H](CCCNC(=N)N)C(=O)N1CCC[C@H]1C(=O)N[C@H](C)C(N)=O` [SEQ ID NO:203, Pal-HSY-(D-Nal)-(D-Cpa)-(D-Pal)-SY-(D-Cit)-LRP-(D-Ala)-NH2] (Palmitoyl-HSY[d2Nal][dPhe(4-Cl)][d3Pal]SY[dCit]LRP[dA]-NH2), in data set [1], the “Max Activity % of positive control” value is given as 109 % of positive control and the IC50 was below 0.51 nM.
By EC50 is commonly meant the midpoint of the concentration-response curve. `CCCCCCCCCCCCCCCC(=O)N[C@@H](CCCCN)C(=O)N[C@@H](CO)C(=O)N[C@@H](Cc1ccc(O)cc1)C(=O)N[C@@H](CO)C(=O)N[C@@H](CC(C)C)C(=O)N[C@@H](CC(=O)O)C(=O)N[C@H](C(=O)N1CCC[C@H]1C(=O)N[C@H](C(=O)N[C@@H](CC(N)=O)C(=O)N[C@H](C(=O)N[C@@H](CCSC)C(=O)N[C@@H](CC(N)=O)C(=O)N[C@@H](CC(C)C)C(=O)N[C@@H](CC(C)C)C(=O)N[C@@H](Cc1ccccc1)C(=O)N[C@@H](CC(N)=O)C(=O)N[C@H](C(=O)N[C@@H](C)C(=O)N[C@@H](CCCCN)C(=O)N[C@@H](C)C(=O)N[C@@H](CCCCN)C(=O)N[C@@H](CC(N)=O)C(=O)N[C@@H](CC(C)C)C(=O)N[C@@H](CCCNC(=N)N)C(=O)N[C@@H](C)C(=O)N[C@@H](CCC(N)=O)C(=O)N[C@@H](C)C(=O)N[C@@H](C)C(=O)N[C@@H](C)C(=O)N[C@@H](CC(N)=O)C(=O)N[C@@H](C)C(=O)N[C@@H](Cc1c[nH]cn1)C(=O)N[C@@H](CC(C)C)C(=O)N[C@@H](CCSC)C(=O)N[C@@H](C)C(=O)N[C@@H](CCC(N)=O)C(=O)N[C@H](C(N)=O)[C@@H](C)CC)[C@@H](C)CC)[C@@H](C)CC)[C@@H](C)O)C(C)C` [SEQ ID NO:231] (Palmitoyl-KSYSLDVPTNIMNLLFNIAKAKNLRAQAAANAHLMAQI-NH2): in data set [2] (Table 3), the “gel formation in aqueous solution, 6%” value is recorded as “SS (SS for semisolid gel)” and the “gel formation in aqueous solution, 11%” value was “SS (SS for semisolid gel)”. In data set [2] (Table 5), the “propensity to form gels, chimeric or mutated polypeptides, 6%” value is given as “SS (An ability to form semisolid gel is represented by an SS)” and the “propensity to form gels … 11%” value was “SS (An ability to form semisolid gel is represented by an SS)”. Further, on CRH receptor 2 (CRHR2), the EC50 came out at 5.7 nM and the “Max Activity % of positive control” value is listed as 78 % of positive control.
As for “Palmitoyl-SSPHSY[AEEA]IVLSLDVPIGLLQILLEQARARAAREQATTNARILARVGHC-NH2 [SEQ ID NO:230]”, the “gel formation at 20% w/w” value in data set [2] (20% w/w in water) is “semisolid or liquid gel”. In addition, in data set [2] (Table 3), the “gel formation in aqueous solution, 11%” value was “AS/IS (AS/IS for aqueous solution or insoluble)”. The “gel formation in aqueous solution, 20%” value in data set [2] (Table 3, 20% w/w) is “SS (SS for semisolid gel)”. The “propensity to form gels … 11%” value in data set [2] (Table 5) is given as “AS/IS”. Moreover, the “propensity to form gels, chimeric or mutated polypeptides, 20%” value in data set [2] (Table 5, 20% w/w) was “SS (An ability to form semisolid gel is represented by an SS)”. Moreover, the “Max Activity % of positive control” value on CRH receptor 2 (CRHR2) is 100 % of positive control.

These data come from patent US20200405868A1, “GEL-FORMING POLYPEPTIDES” (priority 2018, published 2020).
